Test: xn = mol fraction of the nth substance listed
Details: Gas, Frequency=0.05 MHz, Single path-length method, x2 = 0.056

FC(F)(F)C(F)(F)C(F)(F)F [octafluoropropane] + FC(F)(F)C(F)(F)F
Details	speed of sound [m/s]
252.6 K, 87.5 kPa	107.26
252.6 K, 102.5 kPa	106.66
252.6 K, 119.8 kPa	106.02
252.6 K, 143.2 kPa	105.14
252.6 K, 173.7 kPa	103.91
252.6 K, 201.7 kPa	102.77
257.7 K, 88.9 kPa	108.41
257.7 K, 104.4 kPa	107.85
257.7 K, 122.1 kPa	107.22
257.7 K, 146.2 kPa	106.37
257.7 K, 177.3 kPa	105.18
257.7 K, 206.4 kPa	104.1
257.7 K, 234.4 kPa	102.97
262.8 K, 90.4 kPa	109.57
262.8 K, 106.6 kPa	109.02
262.8 K, 124.5 kPa	108.41
262.8 K, 148.9 kPa	107.58
262.8 K, 180.9 kPa	106.46
262.8 K, 210.8 kPa	105.41
262.8 K, 239.7 kPa	104.33
262.8 K, 276.7 kPa	102.88
267.9 K, 91.9 kPa	110.71
267.9 K, 108.6 kPa	110.16
267.9 K, 126.8 kPa	109.58
267.9 K, 151.8 kPa	108.79
267.9 K, 184.5 kPa	107.7
267.9 K, 215.2 kPa	106.69
267.9 K, 245.1 kPa	105.66
267.9 K, 283.1 kPa	104.27
273.1 K, 93.6 kPa	111.83
273.1 K, 110.7 kPa	111.31
273.1 K, 129.5 kPa	110.76
273.1 K, 154.8 kPa	109.99
273.1 K, 188.5 kPa	108.94
273.1 K, 220.5 kPa	107.96
273.1 K, 249.8 kPa	106.97
273.1 K, 290.4 kPa	105.61
278.2 K, 95.1 kPa	112.94
278.2 K, 112.5 kPa	112.44
278.2 K, 131.9 kPa	111.89
278.2 K, 157.6 kPa	111.15
278.2 K, 192.1 kPa	110.13
278.2 K, 224.8 kPa	109.21
278.2 K, 255 kPa	108.24
278.2 K, 296.7 kPa	106.96
283.2 K, 96.7 kPa	114.02
283.2 K, 114.4 kPa	113.54
283.2 K, 134 kPa	113.01
283.2 K, 160.5 kPa	112.31
283.2 K, 195.7 kPa	111.31
283.2 K, 229.1 kPa	110.42
283.2 K, 260.1 kPa	109.49
283.2 K, 303 kPa	108.25
288.3 K, 98.2 kPa	115.1
288.3 K, 116.5 kPa	114.63
288.3 K, 136.2 kPa	114.12
288.3 K, 163.5 kPa	113.43
288.3 K, 199.4 kPa	112.48
288.3 K, 233.4 kPa	111.61
288.3 K, 265.3 kPa	110.72
288.3 K, 309.2 kPa	109.53
293.3 K, 100.1 kPa	116.16
293.3 K, 118.3 kPa	115.7
293.3 K, 118.5 kPa	115.72
293.3 K, 138.4 kPa	115.2
293.3 K, 138.6 kPa	115.22
293.3 K, 166.2 kPa	114.54
293.3 K, 166.5 kPa	114.55
293.3 K, 203 kPa	113.61
293.3 K, 203.4 kPa	113.63
293.3 K, 237.8 kPa	112.79
293.3 K, 270.3 kPa	111.92
293.3 K, 271.3 kPa	111.92
293.3 K, 315.4 kPa	110.77
298.4 K, 101.4 kPa	117.22
298.4 K, 120.3 kPa	116.79
298.4 K, 140.7 kPa	116.3
298.4 K, 169.3 kPa	115.65
298.4 K, 206.9 kPa	114.77
298.4 K, 242.3 kPa	113.97
298.4 K, 275.6 kPa	113.13
298.4 K, 321.7 kPa	112.02
303.4 K, 102.9 kPa	118.27
303.4 K, 122.2 kPa	117.85
303.4 K, 143.1 kPa	117.38
303.4 K, 172.2 kPa	116.75
303.4 K, 210.6 kPa	115.9
303.4 K, 246.6 kPa	115.1
303.4 K, 280.7 kPa	114.31
303.4 K, 327.8 kPa	113.24
308.5 K, 104.4 kPa	119.31
308.5 K, 124.1 kPa	118.88
308.5 K, 145.4 kPa	118.44
308.5 K, 175.2 kPa	117.83
308.5 K, 214.1 kPa	117
308.5 K, 251 kPa	116.24
308.5 K, 285.8 kPa	115.47
308.5 K, 334 kPa	114.43
313.5 K, 105.9 kPa	120.35
313.5 K, 126 kPa	119.93
313.5 K, 147.7 kPa	119.48
313.5 K, 177.9 kPa	118.9
313.5 K, 217.6 kPa	118.09
313.5 K, 255.2 kPa	117.36
313.5 K, 290.9 kPa	116.61
313.5 K, 340 kPa	115.6
318.5 K, 107.5 kPa	121.35
318.5 K, 127.9 kPa	120.96
318.5 K, 150.1 kPa	120.53
318.5 K, 180.8 kPa	119.96
318.5 K, 221.2 kPa	119.17
318.5 K, 259.7 kPa	118.47
318.5 K, 296 kPa	117.74
318.5 K, 346.1 kPa	116.75
323.5 K, 109.2 kPa	122.36
323.5 K, 130 kPa	121.97
323.5 K, 152.5 kPa	121.55
323.5 K, 183.8 kPa	121
323.5 K, 225 kPa	120.25
323.5 K, 264.1 kPa	119.56
323.5 K, 301.1 kPa	118.85
323.5 K, 352.2 kPa	117.91

— the NIST ThermoML archive (doi:10.1021/acs.jced.6b00536)
